The values that follow come from patent publication US20240368552A1, “PRE-EPICARDIAL CELLS AND USES THEREOF” (The General Hospital Corporation, priority 2021, published 2024).

Common to all, as to type: cell-based, human
Assay [1] concerns PECs. The experiment in a line: Stimulation of epithelial-mesenchymal transition in PECs. As to conditions: for PECs CD90 positive: 6 days treatment, flow cytometry; for PEC phenotype (ZO1, WT1, morphology): immunofluorescence, extended culture / 6 days. The protocol:
Stimulation of epithelial-mesenchymal transition in PECs. Day 7 PECs were seeded at 100,000 cells/well on 24-well-plate pre-coated with 0.1% gelatin, and allowed to attach overnight in basal medium (BM) consisted of DMEM/F12 supplemented with […] of Albumax (Gibco, Grand Island, NY), 1×ITS (Gibco, Grand Island, NY), 60 μg/ml ascorbic acid (Sigma Aldrich, St. Louis, MO). 1 μM of ROCK inhibitor Y27632 (Tocris Bioscience, Bristol, UK) was added to facilitate PEC attachment for 24 h. Then, PECs were expanded to full confluency in the BM with 2 μM SB431542 (Stemgent, San Diego, CA) but without AlbuMAX II (Gibco, Grand Island, NY), for 3-4 days. EMT were initiated by adding 5 ng/ml TGFβ (R&D system, Minneapolis, MN) for the initial 3 days and 10 ng/ml bFGF (PeproTech, Rocky Hill, NJ) for the subsequent 3 days or just bFGF alone, up to 6 days. Controls were epicardial cells in basal medium or with addition of 2 μM SB431542 (Stemgent, San Diego, CA).
(§1) Quantitative PCR. Cells were lysed with RT buffer and total RNA was purified using RNeasy® Plus Mini kit (Qiagen, Hilden, Germany) which was reverse transcribed to cDNA using Superscript IV VILO Master Mix (Gibco, Grand Island, NY) and ran on Bio-rad T100™ Thermal Cycler according to manufacturer's protocol. Quantitative PCR was performed on StepOnePlus Real-time PCR system (Applied Biosystems, Foster City, CA) after mixing cDNA with Taqman Gene Expression Master Mix (Cat #: 4369016) and gene Taqman probe (Applied Biosystems, Foster City, CA) which can be found in Table 1. All gene expressions were normalized to housekeeping gene beta-actin and presented as log 2fold change (delta-delta CT).
Flow cytometry. Cells were dissociated using trypsin, pelleted by centrifugation at 300 g for 5 min, and fixed with Fixation/Permeabilization Solution Kit according to manufacturer's protocol (BD Biosciences, San Diego, CA). Cells were washed with 2 times of 10% BD Perm/Wash Buffer (BD Biosciences, San Diego, CA) to remove fixative prior to staining. Samples were incubated with primary antibody diluted in BD Perm/Wash Buffer at 4° C. for 45 min. To remove excessive primary antibody, samples were spun at 250 g for 5 min and washed once with Perm/Wash buffer prior to labelling with Alexa Fluor 488 secondary antibody (Molecular Probes Eugene, OR) at 1:500 for 30 min. All samples were washed once with BD Perm/Wash Buffer prior to analysis with BD Accuri, BD FACS LSR Flow Cytometer (BD Biosciences, San Diego, CA) or NovoCyte Flow Cytometer (ACEA Biosciences, San Diego, CA). All flow cytometric analyses were performed using FlowJo 10.5.0 software.
Immunofluorescence labelling and microscopy (cells, spheres, aggregates). Cultured cells were fixed with cold methanol at 4° C. for 15 min, and then washed with PBS. CM-spheres, PEC-Spheres, and cardiac aggregates were fixed overnight with 4% paraformaldehyde, embedded in Histogel™ (Thermo Scientific, Kalamazoo, MI), dehydrated, and embedded in paraffin. Sections were cut at 5 μm, deparaffinized, and treated with a heat-mediated antigen retrieval technique that included a 20-min boilin 0.01 M citrate buffer (pH 7.0). Both cells and histological sections were labelled with primary antibodies (Table 1) overnight at 4° C. Donkey anti rabbit AlexaFluor 488 and donkey anti-mouse AlexaFluor 546 and 647 (Molecular Probes Eugene, OR) were used as secondary antibodies at 1:500 and nuclei were counterstained with DAPI (Sigma Aldrich, St. Louis, MO). All labelled cells were visualized using Nikon Eclipse Ti fluorescence microscope (Nikon Instruments, Melville, NY), and processed with NIS element imaging software or ImageJ.

Assay [2] deals with hiPSCs (BJR-iPS cells). The experiment in a line: Lateral plate mesoderm (LPM) induction from hiPSCs with CHIR, flow cytometry and RT-PCR. The protocol: HiPSC culture, maintenance and differentiation. Human BJR-iPS cells (hiPSCs) were obtained from Harvard Stem Cell Institute, and maintained in MTeSR medium (STEMCELL Technologies). hiPSCs were passaged with ReleaSR (STEMCELL Technologies, Cambridge, MA) and plated at 1:20 ratio every 7 days onto […] pre-coated with growth factor reduced (GFR)-Matrigel (Corning, Tewksbury, MA). Briefly, hiPSCs were seeded at 200,000 cells/cm^2 onto a GFR-Matrigel-coated plate and maintained in MTeSR medium for 4-5 days. To generate the lateral plate mesoderm (LPM), the cells were treated with 12 μM Stemolecule™ CHIR99021 (Stemgent, San Diego, CA) in differentiation basal medium consisting of RPMI medium supplemented with B27 without insulin (Gibco, Grand Island, NY) (RPMI-INS,) for 48 h. Then, the medium was replaced with RPMI-INS for 24 h. Next, the culture was incubated with 5 μM of Stemolecule™ Wnt inhibitor IWP-4 (Stemgent, San Diego, CA) in RPMI-INS for 48 hr before switching it back to RPMI-INS, for additional 48 hr. After that, the medium was changed to RPMI medium supplemented with insulin-containing B27, and refreshed every 2 days for long term maintenance. For PEC differentiation, LPM cells at day 3 were treated with RPMI-INS supplemented 50 ng/ml bone morphogenic protein (BMP) 4 (PeproTech, Rocky Hill, NJ), 5 ng/ml vascular endothelial growth factor (VEGF; PeproTech, Rocky Hill, NJ) and 4 μM retinoic acid (RA; Stemgent, San Diego, CA) in RPMI-INS and changed every 2 days for 96 hr. PECs were dissociated using collagenase I (Sigma Aldrich, St. Louis, MO) and 1×TrypLE Express Enzyme (Gibco, Grand Island, NY), and maintained in complete PEC medium (PECM) consisted of DMEM/F12 supplemented with 1×insulin-selenium-transferrin (ITS; Gibco, Grand Island, NY), 5 ng/ml VEGF (PeproTech, Rocky Hill, NJ), 10 μM retinol, 4 μM RA (Stemgent, San Diego, CA) and 60 μg/ml ascorbic acid (Sigma). For plating, 1 μM of ROCK inhibitor Y-27632 dihydrochloride (Tocris Bioscience, Bristol, UK) was added for 24 h to facilitate cell attachment, after which medium was switched to PECM. For PEC maintenance, differentiated PEC were passaged and seeded at 10,000/well of 24 well-plate and maintained using SB medium consisted of DMEM/F12 supplemented with 0.4 mg/ml of Albumax (Gibco, Grand Island, NY), 1×ITS (Gibco, Grand Island, NY), 60 μg/ml ascorbic acid (Sigma Aldrich, St. Louis, MO), with 2 μM TGFβ inhibitor SB431542 (Tocris Bioscience, Bristol, UK). […]
Quantitative PCR. […] Quantitative PCR was performed on StepOnePlus Real-time PCR system (Applied Biosystems, Foster City, CA) after mixing cDNA with Taqman Gene Expression Master Mix (Cat #: 4369016) and gene Taqman probe (Applied Biosystems, Foster City, CA) which can be found in Table 1. […]
On the technique in general: Flow cytometry measures light scatter and fluorescence of single cells or particles in a stream.

Assay [3] concerns ventricular-CMs. The experiment in a line: IGF signaling in PEC-induced ventricular-CM proliferation (IGF1R inhibition assay, IGF2 dose-response).
Assay [4] relates to IGF2. The experiment in a line: Inhibition of RA signaling in PEC in transwell (IGF2 qPCR). As to conditions: 5 μM, 6 days, vs control without BMS. The protocol:
as §1
Inhibition of RA signaling in PEC in Transwell: PECs were seeded at 2.5×10^5 cells/well in 24 well-plate while 2.5×10^5 cells VM were cultured in the transwell insert. Both cells were cultured using PECM:RPMI-INS medium, with […] (5 μM) only present in lower compartment with PECs, for 6 days. IGF2 RNA was harvested from PECs for qPCR analysis.
In general terms: In qPCR the cycle at which signal appears reflects the starting amount.

The subject of assay [5] is hiPSC-derived CMs. The experiment in a line: Differentiation of ventricular-like CM population with BMS-189453. As to conditions: day 30, treated 96 h starting at day 3, vs control. The protocol: as §1
Differentiation of Ventricular-like CM population. Human iPS cells were maintained and differentiated to LPM with Stemolecule™ CHIR99021 for 48 h. BMS-189453 (1-2 μM, Sigma Aldrich, St. Louis, MO) was supplemented together with Stemolecule™ Wnt inhibitor IWP-4 (Stemgent, San Diego, CA) in RPMI-INS for 48 h starting day 3. Then, BMS-189453 treatment was continued after additional 48 h after withdrawal of Stemolecule™ Wnt inhibitor IWP-4 in RPMI-INS until day 9. Culture medium was then switched to RPMI supplemented with insulin containing B27 to further maintain the differentiated ventricular myocytes until use.

Where [6] appears, read: 6 days, RT-PCR vs SB-treated PECs.
The mark [7] stands for this setting: 48 h CHIR treatment, day 3, RT-PCR vs hiPSC.
[8] abbreviates: day 3, 48 h CHIR treatment, flow cytometry.

As to “bFGF: bFGF growth factor (PeproTech), 10 ng/ml”, in assay [1], the “PECs CD90 positive” value came to 95.3±0.7%; the “PEC phenotype (ZO1, WT1, morphology)” value is “ZO1 disarrangement, cell and nucleus enlargement, and WT1-expression loss”. For the same compound, in assay [1] (setting [6]), the “ACTA2, DDR2 and POSTN expression” value was “significant increases”; the SNAI1 expression entry is listed as “upregulation”; the “fibroblast markers TCF21 and VIM expression” value was “significant upregulation”.

On to `Cc1c[nH]c(-c2cnc(NCCNc3ccc(C#N)cn3)nc2-c2ccc(Cl)cc2Cl)n1` [CHIR, CHIR99021], for which, in assay [2] (setting [7]), the “pluripotency markers (OCT3/4, SOX2, NANOG) expression” value is given as “significant downregulation”; the “primitive streak, lateral plate mesoderm and cardiac progenitor marker expression” value is “significant upregulation”. For the same compound, in assay [2] (setting [8]), the “LPM progenitors expressing KDR” value came out at 88.0±3.6% and the “LPM progenitors expressing PDGFRA” value was determined as 73.7±4.3%.

Take TGFβ: in assay [1], the “PECs CD90 positive” value came out at 28.7±3.5%; the “PEC phenotype (ZO1, WT1, morphology)” value is “ZO1 disarrangement, cell and nucleus enlargement, and WT1-expression loss”. Also, the “ACTA2, DDR2 and POSTN expression” value in assay [1] (setting [6]) was “significant increases”.

For `C[C@]1(O)C[C@@H](c2nc(-c3ccc4ccc(-c5ccccc5)nc4c3)c3c(N)nccn32)C1` [Linsitinib], the “cTnT+ EdU+ CMs” value in assay [3] (treated with 1 μM, 3 days, PEC coculture) is 7.0±0.4%.

For `CC1(C)CC=C(c2ccccc2)c2cc(/C=C/c3ccc(C(=O)O)cc3)ccc21` [BMS, BMS189453], the “IGF2 expression in co-cultured PECs” value in assay [4] is “significantly reduced”. In assay [5], the “ventricular genes MYH7 and MYL2 expression” value is reported as “significantly upregulated”.

As for `NC(=O)c1ccc(-c2nc(-c3ccc4c(c3)OCO4)c(-c3ccccn3)[nH]2)cc1` [SB, SB431542], in assay [1], the “PECs CD90 positive” value came to 1.1±0.1% and the “PEC phenotype (ZO1, WT1, morphology)” value is listed as “maintain the cuboidal epithelial phenotype with defined ZO1 expression”.

Consider “IGF2: IGF2 protein added to ventricular CMs”, for which the “cTnT+ EdU+ CMs” value in assay [3] (IGF2 addition, dose-response) is “significantly increased”.
